Test results reported in US10294202B2, “Pyrrolidinones as herbicides” (FMC Corporation, priority 2013, dated 2019).

Key:
[1] = tested on: oat, wild; assay: Test C pre-/postemergence herbicide test; format: in vivo, Avena fatua
Method in brief: (§1)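 Greenhouse pots; formulation = non-phytotoxic solvent mix + surfactant. PRE onto seeds in loam:sand; POST at 1–4 leaves (2–18 cm) in peat moss/vermiculite medium. Read-out: visual % control vs untreated, day 13–15.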

[2] = tested on: morningglory; assay: Test C pre-/postemergence herbicide test; format: in vivo, Ipomoea coccinea
Method in brief: as §1

[3] = tested on: wheat; assay: Test A pre-/postemergence herbicide test; format: in vivo, Triticum aestivum; conditions: for Wheat plant response rating: Preemergence, visual rating on 0 to 100 scale (0 no effect, 100 complete control)
Method in brief: (§2)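 Greenhouse pot test with pre- and postemergence application of surfactant-containing solvent formulations. Postemergence plants were 2–10 cm, one- to two-leaf stage. Response scored visually after ~10 days, 0 (no effect) to 100 (complete control).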

[4] = tested on: wheat (winter wheat); assay: Test C pre-/postemergence herbicide test; format: in vivo, Triticum aestivum
Method in brief: as §1

[5] = tested on: corn; assay: Test A pre-/postemergence herbicide test; format: in vivo, Zea mays; conditions: for Corn plant response rating: Preemergence, visual rating on 0 to 100 scale (0 no effect, 100 complete control)
Method in brief: as §2

[6] = tested on: sedge, umbrella; assay: Test B flooded paddy test; format: in vivo, Cyperus difformis; conditions: 250 g ai/ha, Flood; scale of 0 to 100 where 0 is no effect and 100 is complete control
Method in brief: (§3)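 Scoring: visual, compared with untreated controls, 0 = no effect through 100 = complete control, taken 13 to 15 days after treatment in the greenhouse. Compounds had been added to paddy water over soil flooded 3 cm deep at the plants' 2-leaf stage.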

[7] = tested on: ragweed; assay: Test C pre-/postemergence herbicide test; format: in vivo, Ambrosia elatior
Method in brief: as §1

[8] = tested on: barnyardgrass; assay: Test B flooded paddy test; format: in vivo, Echinochloa crus-galli; conditions: 250 g ai/ha, Flood; scale of 0 to 100 where 0 is no effect and 100 is complete control
Method in brief: as §3

[9] = tested on: rice; assay: Test B flooded paddy test; format: in vivo, Oryza sativa; conditions: 250 g ai/ha, Flood; scale of 0 to 100 where 0 is no effect and 100 is complete control
Method in brief: as §3

[10] = tested on: pigweed; assay: Test A pre-/postemergence herbicide test; format: in vivo, Amaranthus retroflexus; conditions: for Pigweed plant response rating: Preemergence, visual rating on 0 to 100 scale (0 no effect, 100 complete control)
Method in brief: as §2

[11] = Postemergence, 31 g ai/ha, scale 0 (no effect) to 100 (complete control)
[12] = Postemergence, 62 g ai/ha, scale 0 to 100 (0 no effect, 100 complete control)
[13] = Postemergence, 125 g ai/ha, scale 0 to 100 (0 no effect, 100 complete control)
[14] = Postemergence, 250 g ai/ha, scale 0 to 100 (0 no effect, 100 complete control)
[15] = Preemergence, 62 g ai/ha, scale 0 to 100
[16] = Preemergence, 125 g ai/ha, scale 0 to 100 (0 no effect, 100 complete control)
[17] = Postemergence, 125 g ai/ha, 0 to 100 scale, 0 no effect, 100 complete control
[18] = Postemergence, 500 g ai/ha, 0 to 100 scale (0 no effect, 100 complete control)
[19] = preemergence, 500 g ai/ha, 0 to 100 scale

O=C1NCC(c2ccc(Cl)c(F)c2)C1C(=O)Nc1cccc(F)c1F (centres unmarked) [Compound 52]
Plant response rating, Oat, Wild [1, 11]: 0 | Plant response rating, Oat, Wild [1, 12]: 0 | Plant response rating, Oat, Wild [1, 13]: 0 | Plant response rating, Oat, Wild [1, 14]: 0 | Plant response rating, Oat, Wild [1, 15]: 0 | Plant response rating, Oat, Wild [1, 16]: 0 | Plant response rating, Morningglory [2, 11]: 5 | Plant response rating, Morningglory [2, 12]: 10 | Plant response rating, Morningglory [2, 13]: 10 | Plant response rating, Morningglory [2, 14]: 30 | Plant response rating, Morningglory [2, 15]: 0 | Plant response rating, Morningglory [2, 16]: 0 | Plant response rating, Wheat [3, 17]: 0 | Plant response rating, Wheat [3, 18]: 30 | Wheat plant response rating ([3]; 125 g ai/ha): 0 | Plant response rating, Wheat [3, 19]: 0 | Plant response rating, Wheat [4, 11]: 0 | Plant response rating, Wheat [4, 12]: 0 | Plant response rating, Wheat [4, 13]: 0 | Plant response rating, Wheat [4, 14]: 0 | Plant response rating, Wheat [4, 15]: 0 | Plant response rating, Wheat [4, 16]: 10 | Plant response rating, Corn [5, 17]: 0 | Plant response rating, Corn [5, 18]: 30 | Corn plant response rating ([5]; 125 g ai/ha): 0 | Plant response rating, Corn [5, 19]: 0 | Plant response rating, Sedge, Umbrella [6]: 85 | Plant response rating, Ragweed [7, 11]: 10 | Plant response rating, Ragweed [7, 12]: 10 | Plant response rating, Ragweed [7, 13]: 50 | Plant response rating, Ragweed [7, 14]: 55 | Plant response rating, Ragweed [7, 15]: 0 | Plant response rating, Ragweed [7, 16]: 0 | Plant response rating, Barnyardgrass [8]: 55 | Plant response rating, Rice [9]: 25 | Plant response rating, Pigweed [10, 17]: 0 | Plant response rating, Pigweed [10, 18]: 40 | Pigweed plant response rating ([10]; 125 g ai/ha): 0 | Plant response rating, Pigweed [10, 19]: 40

O=C1NCC(c2ccc(F)c(Cl)c2)C1C(=O)Nc1ccccc1F (centres unmarked) [Compound 60]
Plant response rating, Oat, Wild [1, 11]: 0 | Plant response rating, Oat, Wild [1, 12]: 0 | Plant response rating, Oat, Wild [1, 13]: 0 | Plant response rating, Oat, Wild [1, 15]: 0 | Plant response rating, Oat, Wild [1, 16]: 5 | Plant response rating, Morningglory [2, 11]: 5 | Plant response rating, Morningglory [2, 12]: 10 | Plant response rating, Morningglory [2, 13]: 10 | Plant response rating, Morningglory [2, 15]: 10 | Plant response rating, Morningglory [2, 16]: 10 | Plant response rating, Wheat [3, 17]: 0 | Plant response rating, Wheat [3, 18]: 50 | Wheat plant response rating ([3]; 125 g ai/ha): 0 | Plant response rating, Wheat [3, 19]: 0 | Plant response rating, Wheat [4, 11]: 0 | Plant response rating, Wheat [4, 12]: 0 | Plant response rating, Wheat [4, 13]: 5 | Plant response rating, Wheat [4, 15]: 0 | Plant response rating, Wheat [4, 16]: 0 | Plant response rating, Corn [5, 17]: 0 | Plant response rating, Corn [5, 18]: 60 | Corn plant response rating ([5]; 125 g ai/ha): 0 | Plant response rating, Corn [5, 19]: 0 | Plant response rating, Sedge, Umbrella [6]: 60 | Plant response rating, Ragweed [7, 11]: 10 | Plant response rating, Ragweed [7, 12]: 25 | Plant response rating, Ragweed [7, 13]: 35 | Plant response rating, Ragweed [7, 15]: 10 | Plant response rating, Ragweed [7, 16]: 25 | Plant response rating, Barnyardgrass [8]: 30 | Plant response rating, Rice [9]: 0 | Plant response rating, Pigweed [10, 17]: 0 | Plant response rating, Pigweed [10, 18]: 0 | Pigweed plant response rating ([10]; 125 g ai/ha): 0 | Plant response rating, Pigweed [10, 19]: 0
